Consider 26 compounds from patent US11345713B2, “Compounds as modulators of TLR2 signaling” (Neuropore Therapies, inc., priority 2018, dated 2022).

The target of experiment [1] is T1, human TLR2 (Pam2CSK4, TLR2/6 agonist) in HEK-Blue hTLR2 cells (Homo sapiens, UniProt O60603).
T1 construct: host or cells: HEK-Blue hTLR2 (HEK-293)
Put plainly: HEK-Blue hTLR2 antagonism assay (SEAP reporter) with Pam2CSK4 as agonist. Type of experiment: cell-based. Particulars: 2 h compound pre-incubation, approx. 3×EC50 Pam2CSK4, 18 h, SEAP OD 655 nm, background subtracted. In outline: (§1)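 HEK-Blue hTLR2 cells (HEK-293 with human TLR2 and NFκB-driven SEAP), 1×10^5/well, pretreated with compound (1% DMSO final) for 2 h, then stimulated with about 3×EC50 Pam3CSK4 or Pam2CSK4 (EC50 set each run) for 18 h at 37 °C. Supernatant SEAP read by Quanti-Blue at OD 655 nm after 15 min; background-subtracted IC50.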

The target in experiment [2] is T2, human TLR2 (Pam3CSK4, TLR1/2 agonist) in HEK-Blue hTLR2 cells (Homo sapiens, UniProt O60603).
T2 construct: host or cells: HEK-Blue hTLR2 (HEK-293)
T2 sequence (O60603 19-784 limits assumed): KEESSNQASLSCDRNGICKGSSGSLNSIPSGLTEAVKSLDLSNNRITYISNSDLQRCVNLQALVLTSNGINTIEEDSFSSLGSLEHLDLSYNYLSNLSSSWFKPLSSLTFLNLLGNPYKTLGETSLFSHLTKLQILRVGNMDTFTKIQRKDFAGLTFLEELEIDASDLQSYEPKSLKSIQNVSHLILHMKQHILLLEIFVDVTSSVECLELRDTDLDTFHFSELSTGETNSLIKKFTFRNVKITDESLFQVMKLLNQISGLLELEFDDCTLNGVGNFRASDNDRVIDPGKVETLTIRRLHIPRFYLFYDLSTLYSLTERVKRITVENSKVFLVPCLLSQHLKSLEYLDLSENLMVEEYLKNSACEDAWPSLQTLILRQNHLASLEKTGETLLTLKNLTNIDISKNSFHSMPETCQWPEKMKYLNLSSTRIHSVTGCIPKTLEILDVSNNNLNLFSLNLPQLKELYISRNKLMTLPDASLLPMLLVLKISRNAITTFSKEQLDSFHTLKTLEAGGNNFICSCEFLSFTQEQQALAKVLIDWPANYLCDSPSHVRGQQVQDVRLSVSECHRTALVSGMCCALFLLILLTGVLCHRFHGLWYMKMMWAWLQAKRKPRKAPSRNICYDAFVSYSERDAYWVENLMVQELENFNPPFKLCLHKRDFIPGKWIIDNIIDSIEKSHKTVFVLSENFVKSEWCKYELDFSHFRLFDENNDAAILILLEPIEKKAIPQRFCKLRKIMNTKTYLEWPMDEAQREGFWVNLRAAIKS
Briefly: HEK-Blue hTLR2 antagonism assay (SEAP reporter) with Pam3CSK4 as agonist. Type of experiment: cell-based. Particulars: 2 h compound pre-incubation, approx. 3×EC50 Pam3CSK4, 18 h, SEAP OD 655 nm, background subtracted. In a few lines: as §1

T1 sequence (O60603 19-784 limits assumed): as above

A word on the IC50: it is the point on the concentration scale where inhibition reaches its midpoint. On to `O=Cc1cc(/C=C/c2ccccn2)cc(F)c1O` [compound 28, (E)-3-fluoro-2-hydroxy-5-(2-(pyridin-2-yl)vinyl)benzaldehyde], for which the IC50 is 19.5 µM in experiment [1] and 29.4 µM in experiment [2].

Turning to `COc1cc(-c2cc3c(s2)CCN(C(C)C)C3)cc(C=O)c1O` [compound 20, 2-hydroxy-5-(5-isopropyl-4,5,6,7-tetrahydrothieno[3,2-c]pyridin-2-yl)-3-methoxybenzaldehyde], the results for the 50% inhibitory concentration (IC50) in experiment [1] and in experiment [2] were 11.2 µM and 10 µM, respectively.

For the compound `CCN1CCN(c2ccc(/C=C/c3cc(O)c(C=O)c(F)c3)cc2)CC1` [compound 72, (E)-4-(4-(4-ethylpiperazin-1-yl)styryl)-2-fluoro-6-hydroxybenzaldehyde], the 50% inhibitory concentration (IC50) in experiment [1] stood at 8.2 µM; in experiment [2], 11.2 µM.

As for `O=S(=O)(N/N=C/c1cc(/C=C/c2ccc(N3CCCC3)cc2)cc(F)c1O)c1ccccc1` [compound 81, N′-((E)-3-fluoro-2-hydroxy-5-((E)-4-(pyrrolidin-1-yl)styryl)benzylidene)benzenesulfonohydrazide], the IC50 in experiment [1] turned out to be 16.4 µM; in experiment [2] it was 13.2 µM.

For `COc1cc(/C=C/c2ccc(C(F)(F)F)cc2)cc(C=O)c1O` [compound 8, (E)-2-hydroxy-3-methoxy-5-(4-(trifluoromethyl)styryl)benzaldehyde], the IC50 was found to be 6.3 µM in experiment [1] and 5.5 µM in experiment [2].

On to `O=Cc1cc(/C=C/c2ccccn2)ccc1O` [compound 24, (E)-2-hydroxy-5-(2-(pyridin-2-yl)vinyl)benzaldehyde], for which the IC50 in experiment [1] and in experiment [2] was more than 100 µM each time.

On to `COc1cc(/C=C/c2ccc3c(c2)CCCO3)cc(C=O)c1O` [compound 67, (E)-5-(2-(chroman-6-yl)vinyl)-2-hydroxy-3-methoxybenzaldehyde], for which the half-maximal inhibitory concentration (IC50) in experiment [1] came to 1.7 µM; in experiment [2] it was 1.2 µM.

In the case of `COc1cc(/C=C/c2ccc(F)cc2F)cc(C=O)c1O` [compound 6, (E)-5-(2,4-difluorostyryl)-2-hydroxy-3-methoxybenzaldehyde], the 50% inhibitory concentration (IC50) in experiment [1] was 2.5 µM; in experiment [2], 2.3 µM.

With `COc1cc(-c2cc3c(s2)CCN(C(=O)C2CC2)C3)cc(C=O)c1O` [compound 14, 5-(5-(cyclopropanecarbonyl)-4,5,6,7-tetrahydrothieno[3,2-c]pyridin-2-yl)-2-hydroxy-3-methoxybenzaldehyde], the figures for the 50% inhibitory concentration (IC50) in experiment [1] and in experiment [2] were 5.7 µM and 4.2 µM, respectively.

As to `COc1cc(/C=C/c2ccc(C)nc2)cc(C=O)c1O` [compound 26, (E)-2-hydroxy-3-methoxy-5-(2-(6-methylpyridin-3-yl)vinyl)benzaldehyde], the IC50 in experiment [1] is 7.4 µM; in experiment [2], 9.3 µM.

As for `CCN1CCN(/N=C/c2cc(/C=C/c3ccc(N4CCCC4)cc3)cc(F)c2O)CC1` [compound 93, 2-((E)-((4-ethylpiperazin-1-yl)imino)methyl)-6-fluoro-4-((E)-4-(pyrrolidin-1-yl)styryl)phenol], the IC50 in experiment [1] came out at 24.5 µM; in experiment [2], 3.2 µM.

Regarding `O=Cc1cc(/C=C/c2ccc(-n3cccn3)cc2)cc(F)c1O` [compound 57, (E)-5-(4-(1H-pyrazol-1-yl)styryl)-3-fluoro-2-hydroxybenzaldehyde], the figures for the IC50 in experiment [1] and in experiment [2] were 1.7 µM and 1.9 µM, respectively.

In the case of `CN1CCc2sc(-c3cc(F)c(O)c(C=O)c3)cc2C1` [compound 18, 3-fluoro-2-hydroxy-5-(5-methyl-4,5,6,7-tetrahydrothieno[3,2-c]pyridin-2-yl)benzaldehyde], the concentration for half-maximal inhibition (IC50) in experiment [1] was 10.4 µM; in experiment [2], 12.2 µM.

Consider `COc1cc(/C=C\c2ccc(N3CCOCC3)cc2)cc(C=O)c1O` [compound 41, (Z)-2-hydroxy-3-methoxy-5-(4-morpholinostyryl)benzaldehyde], for which the figures for the half-maximal inhibitory concentration (IC50) in experiment [1] and in experiment [2] were 35.1 µM and 29.8 µM, respectively.

As for `Cc1ccc(/C=C/c2cc(F)c(O)c(C=O)c2)cn1` [compound 29, (E)-3-fluoro-2-hydroxy-5-(2-(6-methylpyridin-3-yl)vinyl)benzaldehyde], the IC50 is 9.1 µM in experiment [1] and 10 µM in experiment [2].

Take `COc1cc(C=Cc2ccc3c(c2)OCCO3)cc(C=O)c1O` [compound 38, 5-(2-(2,3-dihydrobenzo[b][1,4]dioxin-6-yl)vinyl)-2-hydroxy-3-methoxybenzaldehyde]: the half-maximal inhibitory concentration (IC50) came out at 4.4 µM in experiment [1] and 5 µM in experiment [2].

On to `O=Cc1cc(/C=C/c2cccc(N3CCOCC3)c2)cc(F)c1O` [compound 45, (E)-3-fluoro-2-hydroxy-5-(3-morpholinostyryl)benzaldehyde], for which the IC50 in experiment [1] came out at 5 µM; in experiment [2] it was 6.7 µM.

For `COc1cc(/C=C/c2ccc3c(c2)CCCN3C(=O)OC(C)(C)C)cc(C=O)c1O` [compound 60, tert-butyl (E)-6-(3-formyl-4-hydroxy-5-methoxystyryl)-3,4-dihydroquinoline-1(2H)-carboxylate], the 50% inhibitory concentration (IC50) in experiment [1] came out at 2.3 µM; in experiment [2] it was 0.9 µM.

On to `CC(=O)N/N=C/c1cc(/C=C/c2ccc(N3CCCC3)cc2)cc(F)c1O` [compound 77, N′-((E)-3-fluoro-2-hydroxy-5-((E)-4-(pyrrolidin-1-yl)styryl)benzylidene)acetohydrazide], for which the IC50 in experiment [1] came to 1.4 µM; in experiment [2] it was 1.1 µM.

Regarding `COc1cc(/C=C/C(=O)c2ccccc2)cc(C(=O)/C=C/c2ccccc2)c1O` [compound 84, (E)-3-(3-cinnamoyl-4-hydroxy-5-methoxyphenyl)-1-phenylprop-2-en-1-one], the IC50 in experiment [1] came out at 3.4 µM; in experiment [2], 3.1 µM.

Take `Oc1c(F)cc(/C=C/c2ccc(N3CCCC3)cc2)cc1/C=N/N1CCOCC1` [compound 94, 2-fluoro-6-((E)-(morpholinoimino)methyl)-4-((E)-4-(pyrrolidin-1-yl)styryl)phenol]: the IC50 in experiment [1] was determined as 2.9 µM; in experiment [2], 1.4 µM.

For the compound `Oc1c(F)cc(/C=C/c2ccc(N3CCCC3)cc2)cc1/C=N/c1ccccc1` [compound 78, 2-fluoro-6-((E)-(phenylimino)methyl)-4-((E)-4-(pyrrolidin-1-yl)styryl)phenol], the values for the IC50 in experiment [1] and in experiment [2] were 1 µM and 0.9 µM, respectively.

As to `COc1cc(/C=C/c2cc(C=O)c(O)c(OC)c2)ccc1O` [compound 34, (E)-2-hydroxy-5-(4-hydroxy-3-methoxystyryl)-3-methoxybenzaldehyde], the IC50 in experiment [1] was 9.7 µM; in experiment [2] it was 7.5 µM.

For the compound `COc1cc(/C=C/C(=O)c2ccccc2)cc(C=O)c1O` [compound 33, (E)-2-hydroxy-3-methoxy-5-(3-oxo-3-phenylprop-1-en-1-yl)benzaldehyde], the 50% inhibitory concentration (IC50) in experiment [1] is 6.2 µM; in experiment [2], 6.4 µM.

Consider `O=Cc1cc(/C=C/c2ccc(-c3ccccc3)cc2)cc(F)c1O` [compound 37, (E)-5-(2-([1,1′-biphenyl]-4-yl)vinyl)-3-fluoro-2-hydroxybenzaldehyde], for which the half-inhibitory concentration (IC50) in experiment [1] was 1 µM; in experiment [2], 0.3 µM.

Take `O=Cc1cc(/C=C/c2ccc(N3CCCC3)cn2)cc(F)c1O` [compound 87, (E)-3-fluoro-2-hydroxy-5-(2-(5-(pyrrolidin-1-yl)pyridin-2-yl)vinyl)benzaldehyde]: the IC50 is 3.9 µM in experiment [1] and 3.3 µM in experiment [2].
